These results are taken from ChEMBL document CHEMBL5465560, “Selectivity Literature for EUbOPEN Chemogenomic Library” (2024).

The target of test [1] is SRSF protein kinase 2 (Homo sapiens) (UniProt P78362). The experiment in a line: Selectivity interaction (Upstate Kinase Profiler service (Millipore)) EUB0000056c SRPK2. To be noted: at 1 µM.
For test [2], the target named is Tyrosine-protein kinase FRK (Homo sapiens) (UniProt P42685). The experiment in a line: Selectivity interaction (ProQinase) EUB0000171b FRK.
Test [3] has as its system Mast/stem cell growth factor receptor Kit (Homo sapiens), P10721 [V559D,V654A]. To be noted: at 10 µM.
Test [4] concerns the target Mitogen-activated protein kinase kinase kinase 4 (Homo sapiens) (UniProt Q9Y6R4). The experiment in a line: Selectivity interaction (KinomeScan (DiscoverX)) EUB0001079a MAP3K4. To be noted: at 1 µM.
The target in test [5] is T1, Uncharacterized serine/threonine-protein kinase SBK3 (Homo sapiens) (UniProt P0C264).
T1 sequence (whole entry): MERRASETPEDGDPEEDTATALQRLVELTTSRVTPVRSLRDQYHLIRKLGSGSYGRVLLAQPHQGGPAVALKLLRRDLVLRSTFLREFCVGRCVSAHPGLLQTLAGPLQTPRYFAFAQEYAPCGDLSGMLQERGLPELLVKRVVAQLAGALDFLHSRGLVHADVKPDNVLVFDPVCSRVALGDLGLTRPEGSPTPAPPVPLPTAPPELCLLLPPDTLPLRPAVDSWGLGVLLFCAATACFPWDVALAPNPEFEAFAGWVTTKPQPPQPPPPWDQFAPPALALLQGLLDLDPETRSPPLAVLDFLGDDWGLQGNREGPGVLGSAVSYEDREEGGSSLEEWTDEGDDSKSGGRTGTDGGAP
Description: Selectivity interaction (KinomeScan (DiscoverX)) EUB0000695a SBK3. To be noted: at 100 nM.

Test [6] deals with Tyrosine-protein kinase ABL1 (Homo sapiens), P00519 [F317I]. The experiment in a line: Selectivity interaction (KinomeScan (DiscoverX)) EUB0000666a ABL1. The note with it: at 10 µM.
The target of test [7] is Dual specificity mitogen-activated protein kinase kinase 2 (Homo sapiens) (UniProt P36507). The experiment in a line: Selectivity interaction (ActivX KiNativ screen (kinase selectivity in THP-1 cell lysates)) EUB0000639a MAP2K2. The format is subcellular. The note with it: lysate, at 0.01 µM.
For test [8], the target named is T2, Discoidin domain-containing receptor 2 (Homo sapiens) (UniProt Q16832).
T2 sequence (whole entry): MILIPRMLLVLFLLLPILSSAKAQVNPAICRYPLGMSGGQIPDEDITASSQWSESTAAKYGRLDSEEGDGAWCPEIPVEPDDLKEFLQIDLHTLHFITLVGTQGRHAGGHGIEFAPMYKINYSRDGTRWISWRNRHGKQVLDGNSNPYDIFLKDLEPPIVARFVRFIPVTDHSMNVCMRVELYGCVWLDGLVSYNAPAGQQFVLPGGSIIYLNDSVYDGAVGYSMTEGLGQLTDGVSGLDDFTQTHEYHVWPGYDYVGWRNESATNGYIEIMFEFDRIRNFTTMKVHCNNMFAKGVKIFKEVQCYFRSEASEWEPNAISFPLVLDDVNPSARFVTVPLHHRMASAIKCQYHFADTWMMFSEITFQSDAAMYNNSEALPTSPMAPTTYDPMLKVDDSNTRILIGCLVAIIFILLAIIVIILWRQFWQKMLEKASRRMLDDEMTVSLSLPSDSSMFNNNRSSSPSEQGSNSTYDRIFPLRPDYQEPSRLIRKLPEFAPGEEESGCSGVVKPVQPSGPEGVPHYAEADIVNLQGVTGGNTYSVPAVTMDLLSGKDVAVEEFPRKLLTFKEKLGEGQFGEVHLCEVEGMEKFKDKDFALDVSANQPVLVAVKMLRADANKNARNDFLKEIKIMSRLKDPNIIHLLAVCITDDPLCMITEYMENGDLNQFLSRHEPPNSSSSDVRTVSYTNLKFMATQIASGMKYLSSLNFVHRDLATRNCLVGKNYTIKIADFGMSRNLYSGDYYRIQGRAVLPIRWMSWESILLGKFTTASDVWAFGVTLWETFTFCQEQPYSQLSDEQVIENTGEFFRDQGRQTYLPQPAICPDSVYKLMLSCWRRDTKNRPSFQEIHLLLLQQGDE
Description: Selectivity interaction (KinomeScan (DiscoverX)) EUB0000229b DDR2. To be noted: at 10 µM.

The target of test [9] is Serine/threonine-protein kinase WNK2 (Homo sapiens) (UniProt Q9Y3S1). Description: Selectivity interaction (ActivX KiNativ screen (ex vivo kinase selectivity in human PBMCs)) EUB0001619a WNK2. The format is cell-based. To be noted: PBMC, at 1 µM.
For test [10], the target named is T3, Tyrosine-protein kinase ZAP-70 (Homo sapiens) (UniProt P43403).
T3 sequence (whole entry): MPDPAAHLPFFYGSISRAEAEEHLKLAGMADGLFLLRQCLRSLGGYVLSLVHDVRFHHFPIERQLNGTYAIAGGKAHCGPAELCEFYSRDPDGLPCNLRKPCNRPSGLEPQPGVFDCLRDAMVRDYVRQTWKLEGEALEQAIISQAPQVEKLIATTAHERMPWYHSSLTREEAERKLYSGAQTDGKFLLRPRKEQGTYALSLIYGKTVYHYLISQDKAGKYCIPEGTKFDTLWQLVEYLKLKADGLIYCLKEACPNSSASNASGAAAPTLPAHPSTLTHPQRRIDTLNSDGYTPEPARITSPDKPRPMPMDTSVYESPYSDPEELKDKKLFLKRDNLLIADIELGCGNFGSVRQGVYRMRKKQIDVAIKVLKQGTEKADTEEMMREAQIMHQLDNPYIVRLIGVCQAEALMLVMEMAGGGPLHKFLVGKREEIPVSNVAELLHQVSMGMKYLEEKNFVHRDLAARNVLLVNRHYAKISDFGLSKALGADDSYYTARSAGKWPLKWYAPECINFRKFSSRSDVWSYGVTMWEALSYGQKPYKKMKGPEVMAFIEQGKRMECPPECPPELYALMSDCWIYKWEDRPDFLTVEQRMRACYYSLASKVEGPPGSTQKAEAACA
Description: Selectivity interaction (ActivX KiNativ screen (ex vivo kinase selectivity in human PBMCs)) EUB0001619a ZAP70. The format is cell-based. The note with it: PBMC, at 1 µM.

The target of test [11] is Serine/threonine-protein kinase 10 (Homo sapiens) (UniProt O94804). Description: Selectivity interaction (Kinase panel (DSF assay)) EUB0001489b STK10. On the technique in general: DSF heats the sample and reads unfolding from a dye or from intrinsic fluorescence.
Test [12] addresses Non-receptor tyrosine-protein kinase TYK2 (Homo sapiens, UniProt P29597). Description: Selectivity interaction (KinomeScan (DiscoverX)) EUB0000618a TYK2. To be noted: at 10 µM.

Each structure is given as a SMILES string.

Tyrosine-protein kinase FRK (Homo sapiens), sequence (P42685 whole entry): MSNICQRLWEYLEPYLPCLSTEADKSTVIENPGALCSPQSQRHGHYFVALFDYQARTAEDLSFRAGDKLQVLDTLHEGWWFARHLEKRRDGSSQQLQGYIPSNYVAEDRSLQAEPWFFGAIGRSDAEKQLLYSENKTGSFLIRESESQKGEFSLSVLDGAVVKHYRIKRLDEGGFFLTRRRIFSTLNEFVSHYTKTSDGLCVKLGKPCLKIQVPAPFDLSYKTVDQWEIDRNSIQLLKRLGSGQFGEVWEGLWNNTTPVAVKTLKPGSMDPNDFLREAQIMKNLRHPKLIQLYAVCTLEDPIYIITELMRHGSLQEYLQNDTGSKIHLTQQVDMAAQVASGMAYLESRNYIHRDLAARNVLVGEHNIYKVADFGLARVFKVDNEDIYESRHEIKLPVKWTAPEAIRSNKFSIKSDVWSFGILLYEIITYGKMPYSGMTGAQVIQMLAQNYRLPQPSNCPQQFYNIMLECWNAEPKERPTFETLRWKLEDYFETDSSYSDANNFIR
SRSF protein kinase 2 (Homo sapiens), sequence (P78362 whole entry, looked up): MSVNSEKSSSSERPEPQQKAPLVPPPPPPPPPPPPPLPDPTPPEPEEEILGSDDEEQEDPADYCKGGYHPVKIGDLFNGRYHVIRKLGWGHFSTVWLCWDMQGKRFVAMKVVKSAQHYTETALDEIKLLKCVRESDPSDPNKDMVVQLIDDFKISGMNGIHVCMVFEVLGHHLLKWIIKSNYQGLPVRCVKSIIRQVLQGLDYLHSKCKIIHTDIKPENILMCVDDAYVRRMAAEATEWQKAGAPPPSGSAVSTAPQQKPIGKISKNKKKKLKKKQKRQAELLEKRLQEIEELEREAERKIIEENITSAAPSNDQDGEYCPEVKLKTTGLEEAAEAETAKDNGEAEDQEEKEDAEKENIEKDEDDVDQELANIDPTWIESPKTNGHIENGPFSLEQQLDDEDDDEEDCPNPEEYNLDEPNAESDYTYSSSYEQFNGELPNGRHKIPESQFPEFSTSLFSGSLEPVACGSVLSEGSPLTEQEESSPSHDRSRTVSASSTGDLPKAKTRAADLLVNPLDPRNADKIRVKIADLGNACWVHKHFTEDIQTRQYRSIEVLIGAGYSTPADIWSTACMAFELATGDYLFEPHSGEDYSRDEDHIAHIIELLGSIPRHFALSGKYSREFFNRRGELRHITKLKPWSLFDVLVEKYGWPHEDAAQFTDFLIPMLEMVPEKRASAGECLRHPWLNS
Dual specificity mitogen-activated protein kinase kinase 2 (Homo sapiens), sequence (P36507 whole entry, the tested form may be a part): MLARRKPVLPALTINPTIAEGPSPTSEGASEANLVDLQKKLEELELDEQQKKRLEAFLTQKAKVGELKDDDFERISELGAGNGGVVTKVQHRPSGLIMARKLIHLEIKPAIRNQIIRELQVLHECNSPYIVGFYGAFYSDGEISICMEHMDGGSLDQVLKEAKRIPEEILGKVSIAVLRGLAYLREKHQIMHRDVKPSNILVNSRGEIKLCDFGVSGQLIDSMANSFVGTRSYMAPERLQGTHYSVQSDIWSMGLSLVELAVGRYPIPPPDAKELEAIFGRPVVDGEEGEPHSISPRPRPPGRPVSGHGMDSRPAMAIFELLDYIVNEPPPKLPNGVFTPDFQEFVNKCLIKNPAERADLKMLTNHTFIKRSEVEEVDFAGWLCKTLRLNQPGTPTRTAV
Serine/threonine-protein kinase 10 (Homo sapiens), sequence (O94804 whole entry, looked up): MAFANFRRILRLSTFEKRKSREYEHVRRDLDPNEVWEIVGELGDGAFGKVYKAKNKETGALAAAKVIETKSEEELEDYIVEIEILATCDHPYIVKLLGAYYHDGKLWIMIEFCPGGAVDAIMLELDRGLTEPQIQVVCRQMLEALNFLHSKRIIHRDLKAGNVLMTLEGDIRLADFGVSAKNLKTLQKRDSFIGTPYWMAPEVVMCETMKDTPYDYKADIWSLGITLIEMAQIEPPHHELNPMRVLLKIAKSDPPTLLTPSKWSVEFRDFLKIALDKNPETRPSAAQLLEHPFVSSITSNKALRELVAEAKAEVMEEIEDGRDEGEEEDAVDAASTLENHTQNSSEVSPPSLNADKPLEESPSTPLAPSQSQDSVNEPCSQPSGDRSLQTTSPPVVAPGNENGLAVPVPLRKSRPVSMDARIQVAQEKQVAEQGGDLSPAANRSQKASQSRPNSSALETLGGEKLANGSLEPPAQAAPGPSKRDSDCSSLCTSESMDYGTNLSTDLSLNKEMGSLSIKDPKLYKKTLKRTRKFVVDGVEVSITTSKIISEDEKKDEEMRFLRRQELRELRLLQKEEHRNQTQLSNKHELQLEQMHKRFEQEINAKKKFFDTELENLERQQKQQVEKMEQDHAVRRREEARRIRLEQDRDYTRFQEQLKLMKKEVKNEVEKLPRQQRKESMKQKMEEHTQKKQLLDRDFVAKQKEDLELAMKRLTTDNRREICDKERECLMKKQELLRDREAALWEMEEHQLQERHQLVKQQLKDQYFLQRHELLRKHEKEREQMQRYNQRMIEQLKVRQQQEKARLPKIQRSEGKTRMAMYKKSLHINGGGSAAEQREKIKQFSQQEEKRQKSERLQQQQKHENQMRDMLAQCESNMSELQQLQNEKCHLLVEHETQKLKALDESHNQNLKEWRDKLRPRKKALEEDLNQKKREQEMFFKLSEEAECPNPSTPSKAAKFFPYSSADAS
Serine/threonine-protein kinase WNK2 (Homo sapiens), sequence (Q9Y3S1 whole entry): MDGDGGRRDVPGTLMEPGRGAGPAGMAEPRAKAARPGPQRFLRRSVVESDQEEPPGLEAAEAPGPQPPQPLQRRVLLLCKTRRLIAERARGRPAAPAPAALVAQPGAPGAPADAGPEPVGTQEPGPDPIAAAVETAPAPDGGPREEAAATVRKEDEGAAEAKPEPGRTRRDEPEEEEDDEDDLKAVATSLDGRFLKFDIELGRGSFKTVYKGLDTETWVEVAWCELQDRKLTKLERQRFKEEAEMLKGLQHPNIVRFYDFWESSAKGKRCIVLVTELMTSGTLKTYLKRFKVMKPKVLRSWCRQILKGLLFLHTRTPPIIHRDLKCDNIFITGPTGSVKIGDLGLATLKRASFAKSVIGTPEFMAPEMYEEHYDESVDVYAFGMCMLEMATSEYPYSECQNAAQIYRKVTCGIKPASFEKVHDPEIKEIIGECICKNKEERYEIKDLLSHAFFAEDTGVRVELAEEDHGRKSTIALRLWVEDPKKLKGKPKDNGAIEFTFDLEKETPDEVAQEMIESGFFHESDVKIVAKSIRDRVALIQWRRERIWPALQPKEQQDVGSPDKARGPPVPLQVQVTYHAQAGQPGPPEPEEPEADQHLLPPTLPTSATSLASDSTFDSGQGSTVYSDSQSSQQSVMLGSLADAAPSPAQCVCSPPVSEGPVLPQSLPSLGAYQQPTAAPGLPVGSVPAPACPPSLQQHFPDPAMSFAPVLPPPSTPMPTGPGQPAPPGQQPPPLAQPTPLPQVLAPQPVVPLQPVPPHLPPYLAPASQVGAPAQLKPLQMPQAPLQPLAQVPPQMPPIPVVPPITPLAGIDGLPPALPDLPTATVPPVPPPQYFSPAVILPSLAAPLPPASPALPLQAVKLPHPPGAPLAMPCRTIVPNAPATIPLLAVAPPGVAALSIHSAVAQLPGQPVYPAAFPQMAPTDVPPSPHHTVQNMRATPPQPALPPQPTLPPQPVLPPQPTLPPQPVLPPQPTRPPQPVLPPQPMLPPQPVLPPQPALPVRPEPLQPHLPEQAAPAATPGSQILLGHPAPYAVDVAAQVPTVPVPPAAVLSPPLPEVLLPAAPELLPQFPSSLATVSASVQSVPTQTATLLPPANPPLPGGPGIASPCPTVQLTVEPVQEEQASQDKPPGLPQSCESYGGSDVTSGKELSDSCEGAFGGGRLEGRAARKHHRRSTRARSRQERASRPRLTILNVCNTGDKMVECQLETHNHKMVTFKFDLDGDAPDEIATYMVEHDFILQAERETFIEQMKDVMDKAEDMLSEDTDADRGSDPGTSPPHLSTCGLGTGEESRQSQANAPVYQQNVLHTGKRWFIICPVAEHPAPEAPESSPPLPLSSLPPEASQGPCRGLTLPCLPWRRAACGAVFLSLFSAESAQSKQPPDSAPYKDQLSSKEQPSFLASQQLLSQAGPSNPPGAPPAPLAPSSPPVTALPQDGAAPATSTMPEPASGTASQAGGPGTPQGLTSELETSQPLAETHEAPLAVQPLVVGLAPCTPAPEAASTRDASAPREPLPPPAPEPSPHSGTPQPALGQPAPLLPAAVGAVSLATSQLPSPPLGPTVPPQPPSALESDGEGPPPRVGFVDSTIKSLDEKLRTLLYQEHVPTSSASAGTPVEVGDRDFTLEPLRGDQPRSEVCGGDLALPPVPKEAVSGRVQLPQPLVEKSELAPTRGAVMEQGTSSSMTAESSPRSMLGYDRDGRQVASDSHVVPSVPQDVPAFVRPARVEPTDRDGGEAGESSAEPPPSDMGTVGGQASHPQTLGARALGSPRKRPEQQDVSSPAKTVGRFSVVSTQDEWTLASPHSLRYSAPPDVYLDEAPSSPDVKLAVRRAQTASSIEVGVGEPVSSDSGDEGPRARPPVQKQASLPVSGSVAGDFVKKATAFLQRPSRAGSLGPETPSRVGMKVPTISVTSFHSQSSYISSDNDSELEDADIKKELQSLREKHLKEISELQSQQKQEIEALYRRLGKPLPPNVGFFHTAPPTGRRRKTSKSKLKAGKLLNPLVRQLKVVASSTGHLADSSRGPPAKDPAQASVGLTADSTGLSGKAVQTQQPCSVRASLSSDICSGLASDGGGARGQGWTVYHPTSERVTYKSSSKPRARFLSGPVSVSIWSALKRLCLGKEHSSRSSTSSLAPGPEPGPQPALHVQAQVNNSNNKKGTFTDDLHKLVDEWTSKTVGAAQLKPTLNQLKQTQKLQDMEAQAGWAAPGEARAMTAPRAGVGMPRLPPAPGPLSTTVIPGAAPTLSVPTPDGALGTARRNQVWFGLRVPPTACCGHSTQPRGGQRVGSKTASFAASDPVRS

For the compound `Cc1ccc(-c2ccc3c(ccc4sc5c(c43)NC[C@@H](C)NC5=O)n2)cn1`, in test [1], the % of inhibition came out at 33%.

`C=CC(=O)Nc1cccc(C(=O)Nc2ccc(Nc3cc(-c4[nH]c(SC)nc4C)ccn3)cc2)c1`: the % of control in test [2] (at 1 µM) is 99%; in test [2] (at 5 µM), 75%.

In [3], `Cc1cc([C@@H](C)Nc2ccccc2C(=O)O)c2nc(N3CCOCC3)cc(=O)n2c1` [AZD-6482] returned a % of control of 96%.

In test [4], `Nc1cnc(N2CCc3cc(S(=O)(=O)Nc4c(F)cc(Cl)cc4F)cc(N4CCCC4=O)c32)nc1` [TP-020n] registered a % of control of 85%.

On to `Cc1cc(F)c(C(=O)Nc2cccc(-c3nncn3C(C)C)n2)cc1-n1cnc(C2CC2)c1`, for which the % of control in test [5] worked out at 85%.

Compound `O=C(NOC[C@H](O)CO)c1ccc(F)c(F)c1Nc1ccc(I)cc1F` registered a % of control in [6] of 100%.

For `CC[C@@H]1[C@H](F)C(=O)N[C@@H]1COc1nccc2cc(C(N)=O)c(OC)cc12` [ZIMLOVISERTIB], the % of inhibition in test [7] is -2%.

In test [8], `COc1cc(N(C)c2ccnc3ccc(C(F)(F)F)cc23)cc(OC)c1OC` displayed a % binding of 93%.

Regarding `N#Cc1cccc(-c2c[nH]c3ncnc(N4CCOCC4)c23)c1`, the % of inhibition in [9] is -6%; in [10], 7%.

`CN1CCN(C(=O)c2ccc3cc2OCCOCCNc2ccn4ncc-3c4n2)CC1` came in with a dTM in [11] of 2.3 K.

As to `O[C@H]1CC[C@H](Nc2ncc3nc(Nc4c(F)cc(F)cc4F)n([C@H]4CCOC4)c3n2)CC1`, in [12], the % of control was 81%.
